Laboratory results from patent US9561231B2 (AbbVie Inc., priority 2012, dated 2017).
Marks after values point to notes of the source that are not given here.

Key:
[1] = system: LPS induced IL-6 production; experiment: LPS (lipopolysaccharide) induced IL-6 production mouse assay; conditions: 1 h before LPS 2.5 mg/kg i.p., serum IL-6 2 h after LPS, p<0.05
Description: Severe combined immunodeficient female mice (5 per group) received an intraperitoneal challenge of lipopolysaccharide (2.5 mg/kg, L2630 E. coli 0111:B4) one hour after oral administration of compounds. Mice were euthanized 2 hours after lipopolysaccharide injection, blood was removed by cardiac puncture, and then the serum harvested from the blood samples was frozen at −80° C. On the day of the assay the serum samples were brought to room temperature and then diluted 1:20 in phosphate-buffered saline containing 2% bovine serum albumin. Interleukin-6 measurements were performed using a cytokine assay from Meso Scale Discovery (Gaithersburg, Md.) for mouse serum analysis according to the manufacturer's protocol and read on a SECTOR Imager 6000 (Meso Scale Discovery, Gaithersburg, Md.) instrument. Statistical analysis was performed using Prism software (version 5.0) incorporating Dunnett's one way ANOVA. The IL-6 mean and standard deviation of the group of vehicle treated animals were compared with the IL-6 mean and standard deviation of the group treated with drug. A p value <0.05 means that there is less than a 5% probability that the mean values in the two groups are equal.

[2] = system: MX-1 human breast cancer xenograft; experiment: Xenograft tumor growth inhibition assay: MX-1
Description: (§2) The effect of example compounds to inhibit growth of human tumor xenografts implanted in mice was evaluated. Briefly, cells obtained from culture (MV4-11 and OPM-2) or tumor brie (MX-1) were suspended in cell culture medium (MEM, Suspension, no Calcium, no Glutamine, Life Technologies Corporation) containing Matrigel (phenol red free, Becton Dickinson Biosciences Discovery Labware) and inoculated subcutaneously (approximately 5 million per site) into the right hind flank of SCID-beige (MV4-11 and OPM-2) or SCID (MX-1) female mice (Charles Rivers Labs) on study day 0.
(§3) Tumors were measured with a pair of calipers twice a week starting at the time of size match and tumor volumes were calculated according to the formula V=L×W^2/2 (V: volume, mm^3; L: length, mm. W: width, mm). Tumor volume was measured throughout the treatment period or until the mean tumor volume in each group reached an endpoint of >1000 mm^3.

[3] = system: MV4-11 human AML xenograft; experiment: Xenograft tumor growth inhibition assay: MV4-11; assay type: in vivo, SCID-beige female mice; conditions: QDx14, tumor volumes study day 31
Description: as §2, §3

[4] = biological target: T1, first (BD1: amino acids K57-E168) bromodomain of BRD4 (Homo sapiens, UniProt O60885); experiment: TR-FRET bromodomain binding assay, BRD4 BD1; conditions: TR-FRET assay protocol (A-G, compound concentration range); Ki calculated from IC50, probe Kd and probe concentration; read-out: TR-FRET Binding Ki: BRD4 (BDI_K57-E168)
T1 construct: His-tagged first (BD1: amino acids K57-E168)
How it was run: (§1)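 Displacement of an Alexa647-labelled BET-inhibitor from His-tagged BD1 (K57-E168) or BD2 ([…]) measured by TR-FRET in pH 6.0 sodium phosphate buffer with NaCl, EDTA, Triton X-100 and DTT.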

[5] = biological target: T2, second (BD2: amino acids E352-E168) bromodomain of BRD4 (Homo sapiens, UniProt O60885); experiment: TR-FRET bromodomain binding assay, BRD4 BD2; conditions: TR-FRET assay protocol (A-G, compound concentration range); Ki calculated from IC50, probe Kd and probe concentration; read-out: TR-FRET Binding Ki: BRD4 (BDII_E352-M457)
T2 construct: protocol
How it was run: as §1

[6] = system: breast cancer cell line MX-1; experiment: MX-1 cell line proliferation assay (3-day); assay type: cell-based; conditions: Homo sapiens, MX1; MX-1 cells, 72 h incubation, Cell Titer Glo; read-out: Cellular proliferation: EC50
How it was run: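 MX-1 cells in RPMI/10% FBS, plated 5000/well overnight, then exposed to compound at final 3 to 0.0001 μM (3-fold series) for 3 days at 37° C. Cell Titer Glo luminescence normalized to DMSO-treated cells; EC50 from sigmoidal curve fit.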

[7] = system: OPM-2 human multiple myeloma cancer xenograft; experiment: Xenograft tumor growth inhibition assay: OPM-2; assay type: in vivo, SCID-beige female mice
Description: as §2, §3

[8] = 3 mg/kg/day PO, QDx21, endpoint 1000 mm^3
[9] = 3 mg/kg/day PO, QDx21, tumor volumes study day 27
[10] = 30 mg/kg/day PO, QDx14, endpoint 1000 mm^3
[11] = 1 mg/kg/day PO, QDx21, endpoint 1000 mm^3

Structure (SMILES)	Inhibition of LPS induced IL-6 production, % inhibition ([1]; 3 mg/kg oral)	Ki [4]	Ki [5]	EC50 [6]	also measured
CCOc1cc(=O)n(C)cc1-c1cc(NS(=O)(=O)CC)ccc1Oc1ccc(F)cc1F [Example 285, N-[4-(2,4-difluorophenoxy)-3-(4-ethoxy-1-methyl-6-oxo-1,6-dihydropyridin-3-yl)phenyl]ethanesulfonamide]	84.0 @ 3 mg/kg %				% TGD (tumor growth delay) [2, 8]: 140^d** %; % TGI (tumor growth inhibition) [2, 9]: 84^d*** %
Cn1cc(-c2cc(NS(C)(=O)=O)ccc2Oc2ccc(F)cc2F)ccc1=O [Example 240, N-[4-(2,4-difluorophenoxy)-3-(1-methyl-6-oxo-1,6-dihydropyridin-3-yl)phenyl]methanesulfonamide]		28.2 nM	107 nM	285 nM	% TGI (tumor growth inhibition) ([3]; 3 mg/kg/day PO): 0%; % TGI (tumor growth inhibition) ([3]; 10 mg/kg/day PO): 23%; % TGI (tumor growth inhibition) ([3]; 30 mg/kg/day PO): 65^b** %; % TGI (tumor growth inhibition) ([7]; 30 mg/kg/day PO, QDx14): 36** %; % TGD (tumor growth delay) [7, 10]: 113** %; Inhibition of LPS induced IL-6 production, % inhibition ([1]; 30 mg/kg oral): 72.6 @ 30 mg/kg %; % TGD (tumor growth delay) ([2]; 3 mg/kg/day PO, QDx14, endpoint 1000 mm^3): 20%; % TGI (tumor growth inhibition) ([2]; 3 mg/kg/day PO, QDx14, tumor volumes study day 27): 40* %; % TGD (tumor growth delay) ([2]; 10 mg/kg/day PO, QDx14, endpoint 1000 mm^3): 35** %; % TGI (tumor growth inhibition) ([2]; 10 mg/kg/day PO, QDx14, tumor volumes study day 27): 55*** %; % TGD (tumor growth delay) [2, 10]: 51*** %; % TGI (tumor growth inhibition) ([2]; 30 mg/kg/day PO, QDx14, tumor volumes study day 27): 61*** %
CCS(=O)(=O)Nc1ccc(Oc2ccc(F)cc2F)c(-c2cn(C)c(=O)cc2OC)c1 [Example 271, N-[4-(2,4-difluorophenoxy)-3-(4-methoxy-1-methyl-6-oxo-1,6-dihydropyridin-3-yl)phenyl]ethanesulfonamide]	76.9 @ 3 mg/kg %	9.76 nM	1.55 nM	47.3 nM	% TGI (tumor growth inhibition) ([7]; 1 mg/kg/day PO, QDx21): 66* %; % TGD (tumor growth delay) [7, 11]: 51*** %; % TGI (tumor growth inhibition) ([7]; 3 mg/kg/day PO, QDx21): 73* %; % TGD (tumor growth delay) [7, 8]: 93*** %
CCS(=O)(=O)Nc1ccc(Oc2ccc(F)cc2F)c(-c2cn(C)c(=O)cc2OCC(F)(F)F)c1 [Example 293, N-{4-(2,4-difluorophenoxy)-3-[1-methyl-6-oxo-4-(2,2,2-trifluoroethoxy)-1,6-dihydropyridin-3-yl]phenyl}ethanesulfonamide]	71.0 @ 3 mg/kg %	37.1 nM	5.99 nM	115 nM	% TGD (tumor growth delay) [2, 11]: 11%; % TGI (tumor growth inhibition) ([2]; 1 mg/kg/day PO, QDx21, tumor volumes study day 27): 6%; % TGD (tumor growth delay) [2, 8]: 42%; % TGI (tumor growth inhibition) [2, 9]: 56* %
CCNc1cc(=O)n(C)cc1-c1cc(NS(=O)(=O)CC)ccc1Oc1ccc(F)cc1F [Example 363, N-{4-(2,4-difluorophenoxy)-3-[4-(ethylamino)-1-methyl-6-oxo-1,6-dihydropyridin-3-yl]phenyl}ethanesulfonamide]	42.7 @ 3 mg/kg %	4.94 nM	1.53 nM	29.6 nM	
COc1cc(=O)n(C)nc1-c1cc(NS(C)(=O)=O)ccc1Oc1ccccc1 [Example 22, N-[3-(4-methoxy-1-methyl-6-oxo-1,6-dihydropyridazin-3-yl)-4-phenoxyphenyl]methanesulfonamide]		258 nM	51.9 nM	730 nM	Inhibition of LPS induced IL-6 production, % inhibition ([1]; 50 mg/kg oral): 53.9 @ 50 mg/kg %
COc1cc(=O)n(C)cc1-c1cc(NS(C)(=O)=O)ccc1Oc1ccc(F)cc1F [Example 270, N-[4-(2,4-difluorophenoxy)-3-(4-methoxy-1-methyl-6-oxo-1,6-dihydropyridin-3-yl)phenyl]methanesulfonamide]	68.8 @ 3 mg/kg %	25.6 nM	10.9 nM	138 nM	% TGI (tumor growth inhibition) ([7]; 3 mg/kg/day PO, QDx21): 42* %; % TGD (tumor growth delay) [7, 8]: 17%; % TGI (tumor growth inhibition) ([7]; 10 mg/kg/day PO, QDx21): 60%; % TGD (tumor growth delay) ([7]; 10 mg/kg/day PO, QDx21, endpoint 1000 mm^3): 59** %
CCS(=O)(=O)Nc1ccc(Oc2ccc(F)cc2F)c(-c2cn(C)c(=O)cc2-n2cccn2)c1 [Example 346, N-{4-(2,4-difluorophenoxy)-3-[1-methyl-6-oxo-4-(1H-pyrazol-1-yl)-1,6-dihydropyridin-3-yl]phenyl}ethanesulfonamide]	48.6 @ 3 mg/kg %	41.5 nM	13 nM	264 nM	
